In the PolyMetriX glass transition set one finds glass transition temperature data, which are given here for 42 compounds.

Structures are written as SMILES.

In the case of `*C(=O)Nc1ccc2c(c1)-c1cc(NC(=O)c3ccc4c(c3)C(=O)N(c3cccc(P(=O)(c5ccccc5)c5cccc(N6C(=O)c7ccc(*)cc7C6=O)c5)c3)C4=O)ccc1C2` (repeat unit), the glass transition temperature was 248.00 °C.

As to `*C(=O)Nc1cccc(C(=O)Nc2cccc(NC(=O)c3ccc4[nH]c(-c5cccc(-c6nc7cc(*)ccc7[nH]6)c5)nc4c3)c2)c1` (repeat unit), the glass transition temperature amounted to 331.00 °C.

`*C(=O)Nc1cccc(C(=O)c2cccc(NC(=O)c3ccc4c(c3)C(=O)N(c3ccc(-c5sc(-c6ccc(N7C(=O)c8ccc(*)cc8C7=O)cc6)c(-c6ccccc6)c5-c5ccccc5)cc3)C4=O)c2)c1` (repeat unit) displayed a glass transition temperature of 308.00 °C.

As for `*C(=O)Nc1cccc(NC(=O)c2ccc(N3C(=O)c4ccc(*)cc4C3=O)cc2)c1` (repeat unit), the glass transition temperature was 240.00 °C.

As to `*C(=O)Nc1cccc(NC(=O)c2ccc3[nH]c(-c4cc(-c5nc6cc(*)ccc6[nH]5)cc(N5C(=O)c6ccccc6C5=O)c4)nc3c2)c1` (repeat unit), the glass transition temperature stood at 304.00 °C.

For `*C(=O)Nc1cccc(NC(=O)c2ccc3[nH]c(-c4cccc(-c5nc6cc(*)ccc6[nH]5)c4)nc3c2)n1` (repeat unit), the glass transition temperature amounted to 302.00 °C.

`*C(=O)Nc1cccc(NC(=O)c2ccc3c(c2)C(=O)N(c2cc(-c4nc5ccccc5o4)cc(N4C(=O)c5ccc(*)cc5C4=O)c2)C3=O)n1` (repeat unit) gave a glass transition temperature of 365.00 °C.

In turn, `*C(=O)Nc1cccc(NC(=O)c2ccc3c(c2)C(=O)N(c2cc(-c4nc5ccccc5s4)cc(N4C(=O)c5ccc(*)cc5C4=O)c2)C3=O)n1` (repeat unit) displayed a glass transition temperature of 358.00 °C.

As for `*C(=O)Nc1cccc(NC(=O)c2ccc3c(c2)C(=O)N(c2cccc(N4C(=O)c5ccc(*)cc5C4=O)c2)C3=O)n1` (repeat unit), the glass transition temperature came out at 339.00 °C.

Regarding `*C(=O)Nc1cccc(NC(=O)c2ccc3c(c2)C(=O)N(c2cccc(P(=O)(c4ccccc4)c4cccc(N5C(=O)c6ccc(*)cc6C5=O)c4)c2)C3=O)n1` (repeat unit), the glass transition temperature is 156.00 °C.

`*C(=O)Nc1cccc(NC(=O)c2cccc(NC(=O)c3ccc(-c4nc5cc(*)ccc5[nH]4)cc3)c2)c1` (repeat unit) came in with a glass transition temperature of 292.00 °C.

On to `*C(=O)Nc1cccc(Oc2ccc(C(=O)c3ccc(Oc4cccc(NC(=O)c5ccc(*)nc5)c4)cc3)cc2)c1` (repeat unit), for which the glass transition temperature was 154.00 °C.

`*C(=O)Nc1cccc(S(=O)(=O)c2cccc(NC(=O)c3ccc4c(c3)C(=O)N(c3cc(-c5nnc(-c6ccccn6)o5)cc(N5C(=O)c6ccc(*)cc6C5=O)c3)C4=O)c2)c1` (repeat unit): the glass transition temperature came to 173.00 °C.

As for `*C(=O)Nc1cccc(S(=O)(=O)c2cccc(NC(=O)c3ccc4c(c3)C(=O)N(c3ccc(-c5sc(-c6ccc(N7C(=O)c8ccc(*)cc8C7=O)cc6)c(-c6ccccc6)c5-c5ccccc5)cc3)C4=O)c2)c1` (repeat unit), the glass transition temperature is 320.00 °C.

In the case of `*C(=O)Nc1ccccc1NC(=O)c1ccc(N2C(=O)c3ccc(*)cc3C2=O)cc1` (repeat unit), the glass transition temperature was 215.00 °C.

For `*C(=O)Nc1nc(NC(=O)c2ccc3c(c2)C(=O)N(c2ccc(Oc4cccc5c(N6C(=O)c7ccc(*)cc7C6=O)cccc45)cc2)C3=O)nc(-c2ccccc2)n1` (repeat unit), the glass transition temperature is 291.00 °C.

Consider `*C(=O)c1ccc(N(*)C)cc1` (repeat unit), for which the glass transition temperature was 197.00 °C.

`*C(=O)c1ccc(N(*)CCCCC)cc1` (repeat unit) registered a glass transition temperature of 83.50 °C.

Turning to `*C(=O)c1ccc(N(*)CCCCCCC)cc1` (repeat unit), the glass transition temperature was found to be 45.90 °C.

Turning to `*C(=O)c1ccc(N(*)CCCCCCCC)cc1` (repeat unit), the glass transition temperature turned out to be 30.00 °C.

In turn, `*C(=O)c1ccc2c(c1)C(=O)N(c1ccc(C(=O)c3ccc(C(=O)c4ccc(N5C(=O)c6ccc(*)cc6C5=O)cc4)cc3)cc1)C2=O` (repeat unit) returned a glass transition temperature of 286.00 °C.

With `*C(=O)c1ccc2c(c1)C(=O)N(c1cccc(Nc3nc(Nc4cccc(N5C(=O)c6ccc(*)cc6C5=O)c4)nc(N(C)C)n3)c1)C2=O` (repeat unit), the glass transition temperature was 294.00 °C.

As to `*CCCCCOc1cccc(NC(=O)c2ccc(C(=O)Nc3cccc(O*)c3)cc2)c1` (repeat unit), the glass transition temperature was found to be 135.00 °C.

As to `*CCCCOc1ccc(C(=O)Nc2cccc(P(=O)(c3ccccc3)c3cccc(NC(=O)c4ccc(O*)cc4)c3)c2)cc1` (repeat unit), the glass transition temperature turned out to be 191.00 °C.

Take `*CCOCCOCCOc1cccc(NC(=O)c2cccc(C(=O)Nc3cccc(O*)c3)c2)c1` (repeat unit): the glass transition temperature came to 111.00 °C.

In turn, `*CCOCCOc1cccc(NC(=O)c2cccc(C(=O)Nc3cccc(O*)c3)c2)c1` (repeat unit) displayed a glass transition temperature of 128.50 °C.

With `*Nc1ccc(*)cc1C` (repeat unit), the glass transition temperature is -71.40 °C.

For the compound `*Nc1ccc(*)cc1OC` (repeat unit), the glass transition temperature amounted to 90.00 °C.

For `*Nc1ccc(*)cc1OCCCCCCCCCC` (repeat unit), the glass transition temperature worked out at 77.00 °C.

For `*Nc1ccc(*)cc1OCCCCCCCCCCCC` (repeat unit), the glass transition temperature is 87.00 °C.

As to `*Nc1ccc(*)cc1OCCCCCCCCCCOc1ccc(C2CCC(CCCCC)CC2)cc1` (repeat unit), the glass transition temperature was 64.50 °C.

In the case of `*Nc1cccc(NC(=O)c2cc(NC(=O)C34CC5CC(CC(C5)C3)C4)cc(C(*)=O)c2)c1` (repeat unit), the glass transition temperature came to 365.00 °C.

`*Nc1cccc2c(NC(=O)c3ccc(C(*)=O)cc3)cccc12` (repeat unit) came in with a glass transition temperature of 305.00 °C.

For `*O/C(=C/CC)C(CC)C(*)=O` (repeat unit), the glass transition temperature was -15.90 °C.

Compound `*OC1C(C)(C)C(OC(*)=O)C1(C)C` (repeat unit) came in with a glass transition temperature of 160.00 °C.

`*[O][Sn]([CH2]CCC)([CH2]CCC)[O]C(=O)CCCCC(*)=O` (repeat unit) returned a glass transition temperature of 110.00 °C.

`*Oc1cc(OC(=O)c2ccc(C)cc2)c(OC(=O)CCCCCCCCCCCCCCC(*)=O)cc1OC(=O)c1ccc(C)cc1` (repeat unit) registered a glass transition temperature of 27.00 °C.

`*Oc1cc(OC(=O)c2ccc(OCCCC)cc2)c(OC(=O)C(C)(C)CCC(*)=O)cc1OC(=O)c1ccc(OCCCC)cc1` (repeat unit) showed a glass transition temperature of 61.00 °C.

As for `*Oc1cc(OC(=O)c2ccc(OCCCCC)cc2)c(OC(=O)CCCC(*)=O)cc1OC(=O)c1ccc(OCCCCC)cc1` (repeat unit), the glass transition temperature is 44.00 °C.

For `*Oc1ccc(C(=O)c2ccc(OC(=O)OC3C(C)(C)C(OC(*)=O)C3(C)C)cc2)cc1` (repeat unit), the glass transition temperature came out at 125.00 °C.

As for `*c1cccc(C(=O)Nc2cccc(S(=O)(=O)c3cccc(NC(=O)c4cccc(N5C(=O)c6ccc(-c7cccc8c7C(=O)N(*)C8=O)cc6C5=O)c4)c3)c2)c1` (repeat unit), the glass transition temperature worked out at 261.00 °C.

`*c1cccc(NC(=O)c2cccc(C(=O)Nc3cccc(-n4c(=O)c5cc6c(=O)n(*)c(=O)c6cc5c4=O)c3)c2)c1` (repeat unit): the glass transition temperature worked out at 338.00 °C.
